Broadly, the TGI is the concentration giving total growth inhibition. The low end stands for greater sensitivity of the cells, the high end for lower sensitivity of the cells. The GI50 is the concentration that inhibits growth by half.

From PubChem BioAssay (NCI) come the findings set out here.

Each structure is given as a SMILES string. Where “and” joins values, the source holds several entries; their conditions need not be identical. Equal entries are not always repeated.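 Protocol summary: plate cells (96-well), add compound at 5 concentrations, incubate 48 h, interpolate endpoints linearly. GI50 = concentration required for 50% inhibition of growth. Definition used: TGI = concentration required for complete inhibition of growth.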

The first assay has as its system UACC-257 melanoma. Description: DTP human tumour cell line panel, 48 h.
As to `COc1ccc(CC2c3cc4c(cc3CCN2C)OCO4)c(C=O)c1OC` (centres undefined), the TGI is above 100 µM.

In the case of `COc1cc(/C=N\NC(=O)CN2CCN(c3cc4c(cc3F)c(=O)c(C(=O)N/N=C/c3cc(OC)c(OC)c(OC)c3)cn4C3CC3)CC2)cc(OC)c1OC`, the GI50 was 0.36 µM.

For the molecule `C=CC(=O)Nc1cc(Nc2ncc(C(=O)OC(C)C)c(-c3cn(C)c4ccccc34)n2)c(OC)cc1N(C)CCN(C)C`, the GI50 is 1.8 µM and the total growth inhibition concentration (TGI) stood at 3.71 µM.

As for `Cc1nc2sccn2c1-c1csc(Nc2ccccc2Cl)n1`, the GI50 was 3.69 µM and the TGI amounted to 17.9 µM.

`CN(C)c1ccc(/C=C\C2=[N+](C)c3ccccc3C2(C)C)cc1`: the GI50 was 1.5 µM and the total growth inhibition concentration (TGI) was above 31.2 µM.

Consider `Nc1nc(-n2c(-c3ccccc3)nc3c(Br)cc(Br)cc3c2=O)nnc1-c1cccc(Cl)c1Cl`, for which the GI50 was 22.3 µM and the TGI is above 100 µM.

On to `Cn1cc(C2=C(c3c4n(c5ccccc35)CCCCC4)C(=O)NC2=O)c2ccccc21`, for which the GI50 is above 25 µM and the total growth inhibition concentration (TGI) was above 25 µM.

With `Cc1ccnc2c1ccc1c(C)ccnc12`, the GI50 was 0.508 µM and the total growth inhibition concentration (TGI) is 7.6 µM.

Another assay has as its system HT29 colon. Description: DTP human tumour cell line panel, 48 h.
For `NC(N)=NS(=O)(=O)c1ccc(Nc2c3ccccc3nc3c(C(=O)NCCO)cccc23)cc1`, the GI50 is 29.7 µM.

`C=CCO[C@H]1CO[C@H]2[C@@H]1OC[C@@H]2Oc1ccc(Nc2ccnc(Nc3ccc(O[C@H]4CO[C@H]5[C@@H]4OC[C@@H]5OCC=C)c(Cl)c3)n2)cc1Cl`: the GI50 is 2.08 µM and the TGI turned out to be 4.99 µM.

Consider `COc1ccc2c(c1)sc1nc(-c3ccccc3)c(-c3cccc4ccccc34)n12`, for which the 50% growth inhibitory concentration (GI50) is 0.353 µM and the concentration for total growth inhibition (TGI) came to 4.38 µM.

In turn, `C[N+](C)(C)CC(=O)N/N=C(/CC(=O)CC(C1=C(O)c2ccccc2OC1)c1ccccc1)C(=O)Nc1cccc(Cl)c1` (centres undefined) returned a TGI above 100 µM.

In turn, `CCN(CC)N=Nc1c(C(N)=O)n[nH]c1C` showed a total growth inhibition concentration (TGI) above 100 µM.

For the molecule `OCCN(CCO)c1ncnc2c1ncn2Cc1ccc(CCl)cc1`, the GI50 was 32.5 µM and the TGI was above 100 µM.

As to `O=C(Nc1ccccc1)c1c(O)[nH]c(=S)[nH]c1=O`, the GI50 was 93.5 µM; the TGI was 125 µM and > 250 µM.

As to `Cc1cc(-c2nc(C(=O)Nc3cc4oc(N5CCOCC5)nc4nc3N3CC[C@@H](O)C3)co2)ccn1`, the GI50 is above 100 µM and the TGI is above 100 µM.

Molecule `COc1ccc(CC2c3cc4c(cc3CCN2C)OCO4)c(C=O)c1OC` (centres undefined) yielded a concentration for total growth inhibition (TGI) above 100 µM.

Take `COc1cc(/C=N\NC(=O)CN2CCN(c3cc4c(cc3F)c(=O)c(C(=O)N/N=C/c3cc(OC)c(OC)c(OC)c3)cn4C3CC3)CC2)cc(OC)c1OC`: the 50% growth inhibitory concentration (GI50) was 0.278 µM.

`C=CC(=O)Nc1cc(Nc2ncc(C(=O)OC(C)C)c(-c3cn(C)c4ccccc34)n2)c(OC)cc1N(C)CCN(C)C`: the GI50 was 2.32 µM and the TGI worked out at 5.99 µM.

In the case of `Cc1nc2sccn2c1-c1csc(Nc2ccccc2Cl)n1`, the GI50 is 3.08 µM and the total growth inhibition concentration (TGI) was 13.6 µM.

In the case of `CN(C)c1ccc(/C=C\C2=[N+](C)c3ccccc3C2(C)C)cc1`, the GI50 is 0.309 µM.

With `Nc1nc(-n2c(-c3ccccc3)nc3c(Br)cc(Br)cc3c2=O)nnc1-c1cccc(Cl)c1Cl`, the GI50 was 4.82 µM and the TGI was above 100 µM.

For `Cn1cc(C2=C(c3c4n(c5ccccc35)CCCCC4)C(=O)NC2=O)c2ccccc21`, the GI50 is 2.57 µM and the TGI was above 25 µM.

Turning to `Cc1ccnc2c1ccc1c(C)ccnc12`, the GI50 was 0.491 µM and the concentration for total growth inhibition (TGI) came to 12.6 µM.

In the next assay the test system is LOX IMVI melanoma. Description: DTP human tumour cell line panel, 48 h.
With `NC(N)=NS(=O)(=O)c1ccc(Nc2c3ccccc3nc3c(C(=O)NCCO)cccc23)cc1`, the GI50 was 28 µM.

In the case of `C=CCO[C@H]1CO[C@H]2[C@@H]1OC[C@@H]2Oc1ccc(Nc2ccnc(Nc3ccc(O[C@H]4CO[C@H]5[C@@H]4OC[C@@H]5OCC=C)c(Cl)c3)n2)cc1Cl`, the GI50 is 1.76 µM and the concentration for total growth inhibition (TGI) amounted to 3.31 µM.

On to `COc1ccc2c(c1)sc1nc(-c3ccccc3)c(-c3cccc4ccccc34)n12`, for which the GI50 was 0.713 µM and the concentration for total growth inhibition (TGI) was above 100 µM.

As to `C[N+](C)(C)CC(=O)N/N=C(/CC(=O)CC(C1=C(O)c2ccccc2OC1)c1ccccc1)C(=O)Nc1cccc(Cl)c1` (centres undefined), the total growth inhibition concentration (TGI) was above 100 µM.

In turn, `CCN(CC)N=Nc1c(C(N)=O)n[nH]c1C` yielded a concentration for total growth inhibition (TGI) above 100 µM.

With `OCCN(CCO)c1ncnc2c1ncn2Cc1ccc(CCl)cc1`, the GI50 was 16.4 µM and the TGI worked out at 30.9 µM.

On to `O=C(Nc1ccccc1)c1c(O)[nH]c(=S)[nH]c1=O`, for which the GI50 is 54 µM; the TGI was 73.6 µM and > 250 µM.

For `Cc1cc(-c2nc(C(=O)Nc3cc4oc(N5CCOCC5)nc4nc3N3CC[C@@H](O)C3)co2)ccn1`, the GI50 was 39.9 µM and the concentration for total growth inhibition (TGI) was above 100 µM.

As for `COc1ccc(CC2c3cc4c(cc3CCN2C)OCO4)c(C=O)c1OC` (centres undefined), the concentration for total growth inhibition (TGI) was above 100 µM.

For `COc1cc(/C=N\NC(=O)CN2CCN(c3cc4c(cc3F)c(=O)c(C(=O)N/N=C/c3cc(OC)c(OC)c(OC)c3)cn4C3CC3)CC2)cc(OC)c1OC`, the GI50 was 0.176 µM and the TGI stood at 0.343 µM.

For the molecule `C=CC(=O)Nc1cc(Nc2ncc(C(=O)OC(C)C)c(-c3cn(C)c4ccccc34)n2)c(OC)cc1N(C)CCN(C)C`, the GI50 was 1.76 µM and the TGI was found to be 3.53 µM.

For the molecule `Cc1nc2sccn2c1-c1csc(Nc2ccccc2Cl)n1`, the GI50 was 4.4 µM and the concentration for total growth inhibition (TGI) was determined as 21.6 µM.

Consider `CN(C)c1ccc(/C=C\C2=[N+](C)c3ccccc3C2(C)C)cc1`, for which the concentration for 50% growth inhibition (GI50) was 0.356 µM and the TGI is 14.6 µM.

Consider `Nc1nc(-n2c(-c3ccccc3)nc3c(Br)cc(Br)cc3c2=O)nnc1-c1cccc(Cl)c1Cl`, for which the GI50 was 4.06 µM and the TGI was 37.2 µM.

Consider `Cn1cc(C2=C(c3c4n(c5ccccc35)CCCCC4)C(=O)NC2=O)c2ccccc21`, for which the GI50 is 9.4 µM and the TGI was above 25 µM.

On to `Cc1ccnc2c1ccc1c(C)ccnc12`, for which the GI50 was 0.367 µM and the TGI worked out at 4.66 µM.

The next assay concerns IGROV1 ovarian. The assay is described as follows: DTP human tumour cell line panel, 48 h.
For the molecule `NC(N)=NS(=O)(=O)c1ccc(Nc2c3ccccc3nc3c(C(=O)NCCO)cccc23)cc1`, the GI50 is 17.8 µM.
